Key:
Assay type in all cases: cell-based
[1] = test system: Moraxella catarrhalis; assay: MIC against Gram-negative bacteria: Moraxella catarrhalis; conditions: for MIC (μg/mL) M. catarrhalis / MIC against M. catarrhalis: 5×10^5 CFU/mL
Summary of the method: (§1)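 Broth microdilution, LB medium, final inoculum 5×10^5 CFU/mL from McFarland 0.5 cultures. Recombinant human EGF domain proteins tested in two-fold steps, n=3. MIC: lowest concentration, no growth.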

[2] = test system: Proteus mirabilis; assay: MIC against Gram-negative bacteria: Proteus mirabilis; conditions: for MIC (μg/mL) P. mirabilis / MIC against P. mirabilis: 5×10^5 CFU/mL
Summary of the method: as §1

[3] = test system: Proteus vulgaris; assay: MIC against Gram-negative bacteria: Proteus vulgaris; conditions: for MIC (μg/mL) P. vulgaris / MIC against P. vulgaris: 5×10^5 CFU/mL
Summary of the method: as §1

[4] = test system: Serratia marcescens; assay: MIC against Gram-negative bacteria: Serratia marcescens; conditions: for MIC (μg/mL) S. marcescens / MIC against S. marcescens: 5×10^5 CFU/mL
Summary of the method: as §1

[5] = test system: E. coli BL21; assay: MIC against Gram-negative bacteria: E. coli BL21; conditions: for MIC (μg/mL) E. coli BL21 / MIC against E. coli BL21: 5×10^5 CFU/mL
Summary of the method: as §1

[6] = test system: E. coli DH5α; assay: Antibacterial activity: MIC and growth curve against E. coli DH5α in 96-well plate; conditions: minimal inhibitory concentration against E. coli DH5α; 96-well plate, 5×10^5 CFU/mL, 37° C., judged after 8 h
Summary of the method: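 Log-phase bacteria (OD600 ~0.5) resuspended in LB at 5×10^5 CFU/mL, exposed to recombinant protein at 50, 25, 12.5 μg/mL final in triplicate, 37 °C shaking at 175 rpm. OD600 read every 30 min; MIC is lowest concentration showing no growth.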

[7] = test system: Klebsiella pneumonia; assay: MIC against Gram-negative bacteria: Klebsiella pneumonia; conditions: for MIC (μg/mL) K. pneumonia / MIC against K. pneumonia: 5×10^5 CFU/mL
Summary of the method: as §1

[8] = test system: Enterobacter cloacae; assay: MIC against Gram-negative bacteria: Enterobacter cloacae; conditions: for MIC (μg/mL) E. cloacae / MIC against E. cloacae: 5×10^5 CFU/mL
Summary of the method: as §1

[9] = test system: Aeromonas hydrophila; assay: MIC against Gram-negative bacteria: Aeromonas hydrophila; conditions: for MIC (μg/mL) A. hydrophila / MIC against A. hydrophila: 5×10^5 CFU/mL
Summary of the method: as §1

[10] = test system: Citrobacter diversus; assay: MIC against Gram-negative bacteria: Citrobacter diversus; conditions: for MIC (μg/mL) C. diversus / MIC against C. diversus: 5×10^5 CFU/mL
Summary of the method: as §1

[11] = test system: Pseudomonas aeruginosa; assay: MIC against Gram-negative bacteria: Pseudomonas aeruginosa; conditions: for MIC (μg/mL) P. aeruginosa / MIC against P. aeruginosa: 5×10^5 CFU/mL
Summary of the method: as §1

[12] = Moraxella catarrhalis, 96-well plate, 37° C., 10 h
[13] = Proteus mirabilis, 96-well plate, 37° C., 10 h
[14] = Proteus vulgaris, 96-well plate, 37° C., 10 h
[15] = Serratia marcescens, 96-well plate, 37° C., 10 h
[16] = E. coli BL21, 96-well plate, 37° C., 10 h
[17] = Klebsiella pneumonia, 96-well plate, 37° C., 10 h
[18] = Enterobacter cloacae, 96-well plate, 37° C., 10 h
[19] = Aeromonas hydrophila, 96-well plate, 37° C., 10 h
[20] = Citrobacter diversus, 96-well plate, 37° C., 10 h
[21] = Pseudomonas aeruginosa, 96-well plate, 37° C., 10 h
[22] = M. catarrhalis, 10 h cultivation at 37° C.
[23] = P. mirabilis, 10 h cultivation at 37° C.
[24] = P. vulgaris, 10 h cultivation at 37° C.
[25] = S. marcescens, 10 h cultivation at 37° C.
[26] = E. coli BL21, 10 h cultivation at 37° C.
[27] = K. pneumonia, 10 h cultivation at 37° C.
[28] = E. cloacae, 10 h cultivation at 37° C.
[29] = A. hydrophila, 10 h cultivation at 37° C.
[30] = C. diversus, 10 h cultivation at 37° C.
[31] = P. aeruginosa, 10 h cultivation at 37° C.

PRT3 (DGDQCESNPCLNGGSCKDDINSYECWCPFGFEGKNCE; listed as Homo sapiens)
25 µg/mL: MIC (μg/mL) P. vulgaris [3, 14] | MIC (μg/mL) E. coli BL21 [5, 16] | MIC (μg/mL) A. hydrophila [9, 19] | MIC (μg/mL) C. diversus [10, 20] | MIC (μg/mL) P. aeruginosa [11, 21]
12.5 µg/mL: MIC (μg/mL) M. catarrhalis [1, 12] | MIC (μg/mL) P. mirabilis [2, 13] | MIC (μg/mL) S. marcescens [4, 15] | MIC [6] | MIC (μg/mL) K. pneumonia [7, 17] | MIC (μg/mL) E. cloacae [8, 18]

PRT771 (VQDLCSKTTCKNDGVCTVRDGKAECRCQSGEDWWYMGERCE; listed as Homo sapiens)
25 µg/mL: MIC [6]
12.5 µg/mL: MIC (μg/mL) M. catarrhalis [1, 22] | MIC (μg/mL) P. vulgaris [3, 24] | MIC (μg/mL) E. coli BL21 [5, 26] | MIC (μg/mL) K. pneumonia [7, 27] | MIC (μg/mL) A. hydrophila [9, 29]
50 µg/mL: MIC (μg/mL) P. mirabilis [2, 23] | MIC (μg/mL) S. marcescens [4, 25] | MIC (μg/mL) E. cloacae [8, 28] | MIC (μg/mL) C. diversus [10, 30] | MIC (μg/mL) P. aeruginosa [11, 31]

PRT1254 (DVDECSEGTDDCHIDAICQNTPKSYKCLCKPGYKGEGKQCE; listed as Homo sapiens)
12.5 µg/mL: MIC against P. mirabilis [2, 13] | MIC [6] | MIC against E. cloacae [8, 18] | MIC against C. diversus [10, 20]
50 µg/mL: MIC against M. catarrhalis [1, 12] | MIC against S. marcescens [4, 15] | MIC against A. hydrophila [9, 19] | MIC against P. aeruginosa [11, 21]
25 µg/mL: MIC against P. vulgaris [3, 14] | MIC against E. coli BL21 [5, 16] | MIC against K. pneumonia [7, 17]

PRT197 (LGYDCTTDKCNDRGVCNNKKHCHCSASYLPPDCS; listed as Homo sapiens)
50 µg/mL: MIC [6] | MIC (μg/mL) E. cloacae [8, 28] | MIC (μg/mL) P. aeruginosa [11, 31]
12.5 µg/mL: MIC (μg/mL) M. catarrhalis [1, 22] | MIC (μg/mL) P. mirabilis [2, 23] | MIC (μg/mL) P. vulgaris [3, 24] | MIC (μg/mL) S. marcescens [4, 25] | MIC (μg/mL) E. coli BL21 [5, 26] | MIC (μg/mL) K. pneumonia [7, 27] | MIC (μg/mL) A. hydrophila [9, 29] | MIC (μg/mL) C. diversus [10, 30]

PRT509 (CNCSTVGSLDFQCNVNTGQCNCHPKFSGAKCTECSRGHWNYPRCNL; listed as Homo sapiens)
25 µg/mL: MIC against S. marcescens ([4]; 96-well plate, 37° C., 10 h) | MIC against E. coli BL21 ([5]; 96-well plate, 37° C., 10 h) | MIC against K. pneumonia ([7]; 96-well plate, 37° C., 10 h)
12.5 µg/mL: MIC against M. catarrhalis ([1]; 96-well plate, 37° C., 10 h) | MIC against P. mirabilis ([2]; 96-well plate, 37° C., 10 h) | MIC against P. vulgaris ([3]; 96-well plate, 37° C., 10 h) | MIC [6] | MIC against E. cloacae ([8]; 96-well plate, 37° C., 10 h) | MIC against A. hydrophila ([9]; 96-well plate, 37° C., 10 h) | MIC against C. diversus ([10]; 96-well plate, 37° C., 10 h) | MIC against P. aeruginosa ([11]; 96-well plate, 37° C., 10 h)

PRT772 (TIVSTESLETLAPGLCQEGQIWNGKQCVCPQGYVGYQCL; listed as Homo sapiens)
12.5 µg/mL: MIC (μg/mL) S. marcescens [4, 25] | MIC [6] | MIC (μg/mL) E. cloacae [8, 28] | MIC (μg/mL) C. diversus [10, 30] | MIC (μg/mL) P. aeruginosa [11, 31]
50 µg/mL: MIC (μg/mL) P. mirabilis [2, 23] | MIC (μg/mL) E. coli BL21 [5, 26] | MIC (μg/mL) K. pneumonia [7, 27] | MIC (μg/mL) A. hydrophila [9, 29]
25 µg/mL: MIC (μg/mL) M. catarrhalis [1, 22] | MIC (μg/mL) P. vulgaris [3, 24]

PRT939 (DMNECLSEPCKNGGTCSDYVNSYTCKCQAGFDGVHCE; listed as Homo sapiens)
12.5 µg/mL: MIC [1, 22] | MIC [3, 24] | MIC [7, 27] | MIC [9, 29] | MIC [11, 31]
25 µg/mL: MIC [5, 26]
50 µg/mL: MIC [2, 23] | MIC [4, 25] | MIC [6] | MIC [8, 28] | MIC [10, 30]
